The values below come from US7139665B2, “Computational method for designing enzymes for incorporation of non natural amino acids into proteins” (California Institute of Technology, priority 2002, dated 2006).

Molecules are shown by their SMILES. Entries after “also recorded” stand apart in the source; their conditions may differ.

Assay [1] has as its target T1, ePheRS* (Escherichia coli, UniProt P08312, A294G).
T1 construct: expressed in transfected cells; host or cells: E. coli AF-IQ[pQE-FS*]
The following applies: over-expression of ePheRS*; earlier work; cited from earlier work.

Another assay has as its target T2, ePheRS (Escherichia coli, UniProt P08312).
T2 construct: endogenous in cells; host or cells: E. coli AF-IQ[pQE15]; (Phe-auxotrophic BL21(DE3) derivative)
Kind of assay: In vivo translational activity: mDHFR expression in Phe-auxotrophic E. coli AF-IQ[pQE15] (no mutant synthetase). Format: cell-based. The following applies: phenylalanine-free minimal media supplemented with 2 (250 mg/L), 4 hr post-induction, versus background (-phe).

In assay [2] the target is T1, ePheRS*. Kind of assay: In vivo translational activity: mDHFR expression in E. coli AF-IQ[pQE-FS*] over-expressing ePheRS* (Ala294Gly). Format: cell-based. As to conditions: ePheRS* over-expressed, Phe-depleted media supplemented with 2 (250 mg/L), versus background (-phe).
Method: AF-IQ, a phenylalanine auxotrophic E. coli strain carrying the repressor plasmid pLysS-IQ,^4 was transformed with pQE15, pQE-FS*, or pQE-FS** to generate expression systems AF-IQ[pQE15], AF-IQ[pQE-FS*], and AF-IQ[pQE-FS**], respectively. The capacity of 2 to support protein synthesis in each expression system was determined by induction of mDHFR expression in phenylalanine-free minimal media supplemented with 2.
A phenylalanine auxotrophic derivative of E. coli strain BL21(DE3), designed AF (HsdS gal (χcIts857 ind I Dam5 lacUV5-T7 gene 1) pheA) and constructed in our laboratory, was used as the expression host. The AF strain was transformed with repressor plasmid pLysS-IQ and with pQE15, pQE-FS* or pQE-FS** to generate expression strains AF-IQ[pQE15], AF-IQ[pQE-FS*] or AF-IQ[pQE-FS**], respectively.
Small scale (10 ml) cultures were used to investigate the in vivo translational activity of 2 (p-AcetylPhe). M9 minimal medium (50 ml) supplemented with 0.2% glucose, 1 mg/L thiamine, 1 mM MgSO4, 1 mM CaCl2, 19 amino acids (at 20 mg/L), antibiotics (ampicillin 200 mg/L, chloramphenicol 35 mg/L) and phenylalanine (at 20 mg/L) was inoculated with 1 ml of an overnight culture of the expression strain. […] Cells were cultured for 4 hours post-induction and protein expression was monitored by SDS polyacrylamide gel electrophoresis (PAGE, 12%), using a normalized OD600 of 0.2 per sample.
Another assay deals with T3, ePheRS** (Escherichia coli, UniProt P08312, A294G/T251G).
T3 construct: expressed in transfected cells; host or cells: E. coli AF-IQ[pQE-FS**]
It counts as cell-based.

T1 sequence (P08312 whole entry A294G): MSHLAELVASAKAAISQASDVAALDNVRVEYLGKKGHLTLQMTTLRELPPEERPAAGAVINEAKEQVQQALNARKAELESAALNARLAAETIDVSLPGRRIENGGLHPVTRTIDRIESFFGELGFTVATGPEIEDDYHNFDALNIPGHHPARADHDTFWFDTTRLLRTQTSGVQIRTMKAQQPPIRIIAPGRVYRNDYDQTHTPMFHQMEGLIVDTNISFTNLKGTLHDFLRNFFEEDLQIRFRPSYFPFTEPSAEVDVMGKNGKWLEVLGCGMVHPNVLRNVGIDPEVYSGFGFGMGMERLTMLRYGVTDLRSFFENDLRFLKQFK
T1 sequence (P07395 whole entry, further chain): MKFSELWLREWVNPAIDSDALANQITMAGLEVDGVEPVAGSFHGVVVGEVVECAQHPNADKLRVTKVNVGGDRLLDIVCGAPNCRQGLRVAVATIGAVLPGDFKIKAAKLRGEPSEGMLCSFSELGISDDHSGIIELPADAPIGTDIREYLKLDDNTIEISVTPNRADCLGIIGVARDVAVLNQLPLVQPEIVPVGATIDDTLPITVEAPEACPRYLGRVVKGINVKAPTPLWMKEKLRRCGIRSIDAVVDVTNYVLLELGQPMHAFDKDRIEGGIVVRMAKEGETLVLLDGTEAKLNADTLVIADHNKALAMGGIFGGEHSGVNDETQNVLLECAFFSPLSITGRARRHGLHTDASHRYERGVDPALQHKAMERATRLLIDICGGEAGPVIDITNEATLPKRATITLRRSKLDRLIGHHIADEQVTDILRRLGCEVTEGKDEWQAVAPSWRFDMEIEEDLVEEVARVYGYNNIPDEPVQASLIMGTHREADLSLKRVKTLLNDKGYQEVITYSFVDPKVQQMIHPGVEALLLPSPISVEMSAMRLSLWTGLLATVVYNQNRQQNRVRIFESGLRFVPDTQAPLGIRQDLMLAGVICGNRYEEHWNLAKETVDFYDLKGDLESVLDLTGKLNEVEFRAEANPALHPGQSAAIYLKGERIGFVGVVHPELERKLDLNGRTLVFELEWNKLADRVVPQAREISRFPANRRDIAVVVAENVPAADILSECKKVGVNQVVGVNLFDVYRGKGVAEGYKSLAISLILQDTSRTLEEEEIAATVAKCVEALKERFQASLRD
T3 sequence (P08312 whole entry T251G/A294G): as the sequence (P08312 whole entry A294G) above, with T251G counted along it
T3 sequence (P07395 whole entry, further chain): as the sequence (P07395 whole entry, further chain) above
T2 sequence (P07395 whole entry): as the sequence (P07395 whole entry, further chain) above
T2 sequence (P08312 whole entry): as the sequence (P08312 whole entry A294G) above, with G294A counted along it
Method for ePheRS**: The capacity of 2 to support protein synthesis in each expression system was determined by induction of mDHFR expression in phenylalanine-free minimal media supplemented with 2.
The AF strain was transformed with repressor plasmid pLysS-IQ and with pQE15, pQE-FS* or pQE-FS** to generate expression strains AF-IQ[pQE15], AF-IQ[pQE-FS*] or AF-IQ[pQE-FS**], respectively.
Small scale (10 ml) cultures were used to investigate the in vivo translational activity of 2 (p-AcetylPhe). M9 minimal medium (50 ml) supplemented with 0.2% glucose, 1 mg/L thiamine, 1 mM MgSO4, 1 mM CaCl2, 19 amino acids (at 20 mg/L), antibiotics (ampicillin 200 mg/L, chloramphenicol 35 mg/L) and phenylalanine (at 20 mg/L) was inoculated with 1 ml of an overnight culture of the expression strain. When the optical density at 600 nm reached 0.8–1.0, a medium shift was performed. Cells were sedimented by centrifugation for 15 min at 3,100 g at 4° C., the supernatant was removed and the cell pellets were washed twice with 0.9% NaCl. Cells were resuspended in supplemented M9 medium containing either: (a) 250 mg/L of p-AcetylPhe 2, (b) 20 mg/L phe (1) (positive control), or (c) no phe or analog (negative control). Protein expression was induced 10 min after the medium shift by addition of isopropyl-β-D-thiogalactoside (IPTG) to a final concentration of 1 mM. Cells were cultured for 4 hours post-induction and protein expression was monitored by SDS polyacrylamide gel electrophoresis (PAGE, 12%), using a normalized OD600 of 0.2 per sample.

With `N#Cc1ccc(C[C@H](N)C(=O)O)cc1` [p-cyanophenylalanine], the “incorporation into recombinant proteins in E. coli hosts” value (shortened to “incorporation into recombinant proteins”) on ePheRS* [1] is “efficient incorporation”.

With `CC(=O)c1ccc(C[C@H](N)C(=O)O)cc1` [compound 2, p-acetylphenylalanine], the “protein (mDHFR) expression, SDS-PAGE of whole cell lysates” value at ePheRS is “neither AF-IQ[pQE15] nor AF-IQ[pQE-FS*] exhibits protein expression above background”; on ePheRS* [2] it was “did not produce substantial yields of protein; also recorded: neither AF-IQ[pQE15] nor AF-IQ[pQE-FS*] exhibits protein expression above background”; on ePheRS** (AF-IQ[pQE-FS**], phenylalanine-free minimal media supplemented with 2 (250 mg/L)), “high levels of mDHFR expression”. Further, the “replacement of 1 by 2 in mDHFR” value at ePheRS** (from MALDI-TOF mass increase of mDHFR-2, mDHFR contains 9 Phe residues) is on record as “approximately 80%”. Moreover, the “misincorporation of canonical amino acids” value on ePheRS** (media supplemented with 2) is listed as “no detectable misincorporation”.

As to `C#Cc1ccc(C[C@H](N)C(=O)O)cc1` [p-ethynylphenylalanine], the “incorporation into recombinant proteins” value on ePheRS* [1] is on record as “efficient incorporation”.

Consider `N[C@@H](Cc1ccc(Br)cc1)C(=O)O` [p-bromophenylalanine], for which the “incorporation into recombinant proteins” value at ePheRS* [1] is “efficient incorporation”.

For the compound `N[C@@H](Cc1ccc(I)cc1)C(=O)O` [p-iodophenylalanine], the “incorporation into recombinant proteins” value on ePheRS* [1] is “efficient incorporation”.

Take `[N-]=[N+]=Nc1ccc(C[C@H](N)C(=O)O)cc1` [p-azidophenylalanine]: the “incorporation into recombinant proteins” value at ePheRS* [1] was “efficient incorporation”.

Regarding `N[C@@H](Cc1ccc(O)cc1)C(=O)O` [tyrosine], the misincorporation into protein entry at ePheRS** (under any conditions) is listed as “not observed misincorporation”.

As to `N[C@@H](Cc1c[nH]c2ccccc12)C(=O)O` [tryptophan], the “misincorporation into protein by ePheRS**” value on ePheRS** (phe starvation conditions in the absence of 2) is listed as “misincorporation”.
